Laboratory results taken from ChEMBL document CHEMBL1926587, “Molecular insights into human monoamine oxidase (MAO) inhibition by 1,4-naphthoquinone: evidences for menadione (vitamin K3) acting as a competitive and reversible inhibitor of MAO” (Bioorg Med Chem, 2011).
The source made the active and inactive calls. No cut-off for these calls is given here.

Experiments:
[1] = molecular target: T1, Amine oxidase [flavin-containing] A (Homo sapiens, UniProt P21397); experiment: Competitive inhibition of human MAO-A
T1 sequence (P21397 whole entry): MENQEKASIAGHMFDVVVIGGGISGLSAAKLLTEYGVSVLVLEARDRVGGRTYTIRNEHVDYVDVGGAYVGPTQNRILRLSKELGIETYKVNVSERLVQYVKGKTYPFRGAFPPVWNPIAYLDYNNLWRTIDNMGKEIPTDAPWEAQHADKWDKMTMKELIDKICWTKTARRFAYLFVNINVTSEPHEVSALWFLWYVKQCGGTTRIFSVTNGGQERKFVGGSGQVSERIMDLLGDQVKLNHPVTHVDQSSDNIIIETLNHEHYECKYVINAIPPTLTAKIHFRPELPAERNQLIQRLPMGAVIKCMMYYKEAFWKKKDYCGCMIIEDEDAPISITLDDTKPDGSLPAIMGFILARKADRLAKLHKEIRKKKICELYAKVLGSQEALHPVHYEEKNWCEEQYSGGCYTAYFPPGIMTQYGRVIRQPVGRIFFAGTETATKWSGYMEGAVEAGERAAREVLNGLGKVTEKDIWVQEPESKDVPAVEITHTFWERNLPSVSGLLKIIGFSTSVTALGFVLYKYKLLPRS

[2] = molecular target: T2, Amine oxidase [flavin-containing] B (Homo sapiens, UniProt P27338); experiment: Competitive inhibition of human MAO-B
T2 sequence (P27338 whole entry): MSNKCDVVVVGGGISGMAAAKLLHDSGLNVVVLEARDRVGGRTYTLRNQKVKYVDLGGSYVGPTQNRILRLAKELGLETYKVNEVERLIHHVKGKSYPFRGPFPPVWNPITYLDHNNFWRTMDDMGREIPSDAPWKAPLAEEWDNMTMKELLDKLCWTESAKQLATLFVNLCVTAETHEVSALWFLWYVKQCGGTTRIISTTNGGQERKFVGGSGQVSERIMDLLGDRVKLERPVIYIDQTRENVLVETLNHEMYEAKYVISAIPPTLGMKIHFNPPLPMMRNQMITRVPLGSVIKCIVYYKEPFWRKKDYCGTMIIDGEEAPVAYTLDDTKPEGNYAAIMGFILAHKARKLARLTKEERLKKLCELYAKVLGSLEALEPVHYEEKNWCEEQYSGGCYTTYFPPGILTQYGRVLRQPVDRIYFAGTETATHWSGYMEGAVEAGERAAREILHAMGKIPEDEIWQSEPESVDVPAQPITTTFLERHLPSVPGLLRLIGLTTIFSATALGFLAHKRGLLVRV

[3] = organism: Rattus norvegicus; experiment: Selectivity ratio of Ki for rat MAO-A to Ki for rat MAO-B
[4] = organism: Homo sapiens; experiment: Selectivity ratio of Ki for human recombinant MAO-A to Ki for human recombinant MAO-B
[5] = molecular target: T2, Amine oxidase [flavin-containing] B; experiment: Competitive inhibition of human recombinant MAO-B expressed in baculovirus infected insect cells assessed as reduction in fluorescence at 10 to 12 uM by spectrofluorimetry relative to control; parameters: scale not given: the % may be the effect or the level left
[6] = molecular target: T2, Amine oxidase [flavin-containing] B; experiment: Reversible inhibition of human recombinant MAO-B expressed in baculovirus infected insect cells assessed as decrease in Km at 5 uM preincubated for 20 mins measured 3 hrs post dialysis by Lineweaver-Burk plot analysis
[7] = molecular target: T2, Amine oxidase [flavin-containing] B; experiment: Competitive inhibition of human recombinant MAO-B expressed in baculovirus infected insect cells assessed as increase in Km at 5 uM by Lineweaver-Burk plot analysis
[8] = test system: Armoracia rusticana; experiment: Inhibition of horseradish peroxidase at 100 uM after 45 mins by amplex red assay in the presence of hydrogen peroxide
[9] = molecular target: T2, Amine oxidase [flavin-containing] B; experiment: Competitive inhibition of human recombinant MAO-B expressed in baculovirus infected insect cells using benzylamine as substrate by Lineweaver-Burk plot analysis
[10] = molecular target: T1, Amine oxidase [flavin-containing] A; experiment: Competitive inhibition of human recombinant MAO-A expressed in baculovirus infected insect cells using p-tyramine as substrate by Lineweaver-Burk plot analysis
[11] = molecular target: T1, Amine oxidase [flavin-containing] A; experiment: Reversible inhibition of human recombinant MAO-A expressed in baculovirus infected insect cells assessed as decrease in Km at 5 uM preincubated for 20 mins measured 3 hrs post dialysis by Lineweaver-Burk plot analysis
[12] = molecular target: T1, Amine oxidase [flavin-containing] A; experiment: Competitive inhibition of human recombinant MAO-A expressed in baculovirus infected insect cells assessed as increase in Km at 5 uM by Lineweaver-Burk plot analysis
[13] = molecular target: T1, Amine oxidase [flavin-containing] A; experiment: Noncompetitive inhibition of human recombinant MAO-A expressed in baculovirus infected insect cells assessed as reduction in Vmax at 5 uM by Lineweaver-Burk plot analysis
[14] = molecular target: T1, Amine oxidase [flavin-containing] A; experiment: Reversible inhibition of human recombinant MAO-A expressed in baculovirus infected insect cells assessed as increase in Vmax at 5 uM preincubated for 20 mins measured 3 hrs post dialysis by Lineweaver-Burk plot analysis
[15] = molecular target: T1, Amine oxidase [flavin-containing] A; experiment: Noncompetitive inhibition of human recombinant MAO-A expressed in baculovirus infected insect cells using p-tyramine as substrate by Lineweaver-Burk plot analysis
[16] = molecular target: T2, Amine oxidase [flavin-containing] B; experiment: Competitive inhibition of human recombinant MAO-B expressed in baculovirus infected insect cells assessed as reduction in fluorescence at 20 to 25 uM by spectrofluorimetry relative to control; parameters: scale not given: the % may be the effect or the level left

| Compound | Ratio Ki [3] | Ratio Ki [4] | inhibition (INH) [6] | inhibition (INH) [7] | inhibition [8] | Ki [9] | further results |
| --- | --- | --- | --- | --- | --- | --- | --- |
| CC1=C(C)C(=O)c2cc(C)ccc2C1=O | – | – | – | – | – | – | Ki [1]: 6 µM; Ki [2]: 3 µM |
| C#CCN(C)[C@H](C)Cc1ccccc1 | 250 | 250 | – | – | – | – | – |
| C#CCN[C@@H]1CCc2ccccc21 | 93 | 50 | – | – | – | – | – |
| CC1=CC(=O)c2ccccc2C1=O [MENADIONE] | – | 60 | Active | Active | inactive | 0.4 µM | Activity [5]: 50%; Ki [10]: 26 µM; inhibition (INH) [11]: Active; inhibition (INH) [12]: Active |
| O=C1C=CC(=O)c2ccccc21 [NAPHTHOQUINONE] | – | – | Active | Active | inactive | 1.5 µM | inhibition (INH) [13]: Active; inhibition (INH) [14]: Active; Ki [15]: 7.7 µM; Activity [16]: 50% |
